From patent US9505786B2, “Substituted annulated triazines and use thereof” (BAYER INTELLECTUAL PROPERTY GMBH, priority 2012, dated 2016)

Columns and labels:
aorta rings = experiment: Vasorelaxant effect in vitro (phenylephrine-contracted aorta rings); conditions: Oryctolagus cuniculus, rabbit aorta rings, organ bath, phenylephrine contraction; read-out: IC50 (concentration needed to reduce the phenylephrine contraction by 50%)
Protocol: B-1. Vasorelaxant Effect In Vitro
Rabbits are stunned by a blow to the neck and exsanguinated. The aorta is removed, freed from adhering tissue and divided into rings of a width of 1.5 mm. The rings are placed individually under an initial tension in 5 ml organ baths with Krebs-Henseleit solution which is at 37° C., is gassed with carbogen and has the following composition (in each case mM): sodium chloride: 119; potassium chloride: 4.8; calcium chloride dihydrate: 1; magnesium sulphate heptahydrate: 1.4; potassium dihydrogenphosphate: 1.2; sodium bicarbonate: 25; glucose: 10. The contractile force is determined with Statham UC2 cells, amplified and digitalized using A/D transducers (DAS-1802 HC, Keithley Instruments Munich), and recorded in parallel on linear recorders.
To produce a contraction, phenylephrine is added to the bath cumulatively in increasing concentration. After several control cycles, the substance to be investigated is added in each further run in increasing dosage in each case, and the height of the contraction achieved is compared with the height of the contraction reached in the last preceding run. This is used to calculate the concentration needed to reduce the magnitude of the control value by 50% (IC50 value). The standard administration volume is 5 μl; the DMSO content in the bath solution corresponds to 0.1%.

[1] = system: recombinant guanylate cyclase reporter cell line; experiment: Effect on a recombinant guanylate cyclase reporter cell line; type: cell-based
Protocol: B-2. Effect on a Recombinant Guanylate Cyclase Reporter Cell Line
The cellular activity of the compounds according to the invention is determined using a recombinant guanylate cyclase reporter cell line, as described in F. Wunder et al., Anal. Biochem. 339, 104-112 (2005).

[2] = molecular target: human phosphodiesterase 5 (PDE 5) (Homo sapiens (Human), UniProt O76074); experiment: Inhibition of human phosphodiesterase 5 (PDE 5), SPA assay; type: biochemical; conditions: PDE 5 preparation from human platelets, [8-3H] cGMP substrate
Procedure, shortened: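 Enzyme partially purified from human platelets by Mono Q chromatography; [8-3H]cGMP substrate (0.025 μCi per well), enzyme diluted to keep conversion below 70%. Compounds 4 μM to 0.0018 μM final, 60 min at room temperature in Tris pH 7.5/MgCl2/EDTA; yttrium SPA bead read-out; IC50 from concentration–inhibition plot.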

Compound	IC50 (aorta rings) [nM]	MEC (minimum effective concentration) [1] [nM]	IC50 [2] [nM]
Cc1cc(-c2nc(-c3nn(Cc4ccccc4F)c4ncccc34)nc3c2C(C)(C)C(=O)N3)n(C)n1 [Example 38, 4-(1,3-Dimethyl-1H-pyrazol-5-yl)-2-[1-(2-fluorobenzyl)-1H-pyrazolo[3,4-b]pyridin-3-yl]-5,5-dimethyl-5,7-dihydro-6H-pyrrolo[2,3-d]pyrimidin-6-one]	91	30	690
CC(C)n1ccc(-c2nc(-c3nn(Cc4ccccc4F)c4ncccc34)nc3c2C(C)(C)C(=O)N3)n1 [Example 39, 2-[1-(2-Fluorobenzyl)-1H-pyrazolo[3,4-b]pyridin-3-yl]-4-(1-isopropyl-1H-pyrazol-3-yl)-5,5-dimethyl-5,7-dihydro-6H-pyrrolo[2,3-d]pyrimidin-6-one]	225	30	240
Cn1nccc1-c1nc(-c2nn(Cc3ccccc3F)c3ncccc23)nc2c1C(C)(C)C(=O)N2 [Example 40, 2-[1-(2-Fluorobenzyl)-1H-pyrazolo[3,4-b]pyridin-3-yl]-5,5-dimethyl-4-(1-methyl-1H-pyrazol-5-yl)-5,7-dihydro-6H-pyrrolo[2,3-d]pyrimidin-6-one]	227	30	250
Cn1nc(C(F)(F)F)cc1-c1nc(-c2nn(Cc3ccccc3F)c3ncccc23)nc2c1C(C)(C)C(=O)N2 [Example 41, 2-[1-(2-Fluorobenzyl)-1H-pyrazolo[3,4-b]pyridin-3-yl]-5,5-dimethyl-4-[1-methyl-3-(trifluoromethyl)-1H-pyrazol-5-yl]-5,7-dihydro-6H-pyrrolo[2,3-d]pyrimidin-6-one]	4210	300	1600
Cn1c(C#N)ccc1-c1nc(-c2nn(Cc3ccccc3F)c3ncccc23)nc2c1C(C)(C)C(=O)N2 [Example 42, 5-{2-[1-(2-Fluorobenzyl)-1H-pyrazolo[3,4-b]pyridin-3-yl]-5,5-dimethyl-6-oxo-6,7-dihydro-5H-pyrrolo[2,3-d]pyrimidin-4-yl}-1-methyl-1H-pyrrole-2-carbonitrile]	728	10	1300
CC1(C)C(=O)Nc2nc(-c3nn(Cc4ccccc4F)c4ncc(F)cc34)nc(CN)c21.O=CO [Example 44, 4-(Aminomethyl)-2-[5-fluoro-1-(2-fluorobenzyl)-1H-pyrazolo[3,4-b]pyridin-3-yl]-5,5-dimethyl-5,7-dihydro-6H-pyrrolo[2,3-d]pyrimidin-6-one formate]	501	30	870
COCCCc1nc(-c2nn(Cc3ccccc3F)c3ncccc23)nc2c1C(C)(C)C(=O)N2 [Example 46, 2-[1-(2-Fluorobenzyl)-1H-pyrazolo[3,4-b]pyridin-3-yl]-4-(3-methoxypropyl)-5,5-dimethyl-5,7-dihydro-6H-pyrrolo[2,3-d]pyrimidin-6-one]	71	100	120
CC1(C)C(=O)Nc2nc(-c3nn(Cc4ccccc4F)c4ncc(F)cc34)nc(CNCC(F)(F)F)c21 [Example 57, 2-[5-Fluoro-1-(2-fluorobenzyl)-1H-pyrazolo[3,4-b]pyridin-3-yl]-5,5-dimethyl-4-{[(2,2,2-trifluoroethyl)amino]methyl}-5,7-dihydro-6H-pyrrolo[2,3-d]pyrimidin-6-one]	422	30	320
CC1(C)C(=O)Nc2nc(-c3nn(Cc4ccccc4F)c4ncc(F)cc34)nc(CCC(F)(F)F)c21 [Example 58, 2-[5-Fluoro-1-(2-fluorobenzyl)-1H-pyrazolo[3,4-b]pyridin-3-yl]-5,5-dimethyl-4-(3,3,3-trifluoropropyl)-5,7-dihydro-6H-pyrrolo[2,3-d]pyrimidin-6-one]	9800	300	660
